Test results as given in patent US11344588B2, “Lactobacillus plantarum CJLP17 having antiviral and immunomodulatory efficacies and composition comprising the same” (CJ CHEILJEDANG CORPORATION, priority 2018, dated 2022).

System: CJLP17 strain
Assay: Antibiotic susceptibility test with antibiotic discs
Assay type: cell-based, Lactobacillus plantarum
Settings: antibiotic disc on CJLP17 lawn, Mueller Hinton II medium, 37° C., 24 hours
Protocol: The CJLP17 strain was inoculated into a liquid MRS medium and subjected to a static culture at 37° C. for 24 hours. The thus-cultured bacteria were soaked in sterilized cotton swabs and smeared on a solid Mueller Hinton II medium (Difco), and then antibiotic discs were placed on the medium and incubated at 37° C. for 24 hours. Ampicillin, clindamycin, gentamicin, kanamycin, erythromycin, ampicillin/sulbactam, chloramphenicol, and streptomycin discs (Oxoid, UK) were used as antibiotic discs for the antibiotic test.

Row | Molecule | Radius of Growth Inhibition Area Centered Around Antibiotics
1 | Gentamicin [CN120 (Gentamicin)] | 5 mm
2 | Ampicillin/Sulbactam [SAM20 (Ampicillin/Sulbactam)] | 7 mm
3 | CCC[C@@H]1C[C@@H](C(=O)N[C@@H]([C@H]2O[C@H](SC)[C@H](O)[C@@H](O)[C@H]2O)[C@H](C)Cl)N(C)C1 [C30 (Clindamycin), Clindamycin] | 7 mm
4 | [H]/N=C(/N)N[C@H]1[C@H](O)[C@@H](O)[C@H](O[C@@H]2O[C@@H](C)[C@](O)(C=O)[C@H]2O[C@@H]2O[C@@H](CO)[C@H](O)[C@@H](O)[C@@H]2NC)[C@@H](N/C(N)=N\[H])[C@@H]1O [DA2 (Streptomycin), Streptomycin] | 4.5 mm
5 | NC[C@H]1O[C@H](O[C@H]2[C@H](O)[C@@H](O[C@H]3O[C@H](CO)[C@@H](O)[C@H](N)[C@H]3O)[C@H](N)C[C@@H]2N)[C@H](O)[C@@H](O)[C@@H]1O [K30 (Kanamycin), Kanamycin] | 1.5 mm
6 | CC1(C)S[C@@H]2[C@H](NC(=O)[C@H](N)c3ccccc3)C(=O)N2[C@H]1C(=O)O [Amp10 (Ampicillin), Ampicillin] | 7.5 mm
7 | O=C(N[C@H](CO)[C@H](O)c1ccc([N+](=O)[O-])cc1)C(Cl)Cl [S10 (Chloramphenicol), Chloramphenicol] | 3.5 mm
8 | CC[C@H]1OC(=O)[C@H](C)[C@@H](O[C@H]2C[C@@](C)(OC)[C@@H](O)[C@H](C)O2)[C@H](C)[C@@H](O[C@@H]2O[C@H](C)C[C@H](N(C)C)[C@H]2O)[C@](C)(O)C[C@@H](C)C(=O)[C@H](C)[C@@H](O)[C@]1(C)O [E15 (Erythromycin), Erythromycin] | 12 mm
